{
  "source": "patent US20260191835A1",
  "about": "“COMBINATIONS COMPRISING A MENIN-MLL INHIBITOR AND AT LEAST ONE OTHER THERAPEUTIC AGENT” (JANSSEN PHARMACEUTICA NV, priority 2022, published 2026)",
  "test_system": "MV4-11 cells",
  "assay": "In vitro proliferation (Cell Titer Glo, 6 days) of Compound 51 in combination with gilteritinib, midostaurin or decitabine, MV4-11",
  "type": "cell-based",
  "design": "key to Synergy/antagonism call (maxR test), MV4-11 Cell Proliferation: synergy is indicated by “**”; antagonism is indicated by “*”; no asterisk: absence of any asterisk indicates an additive effect",
  "conditions": "for combination effect on proliferation (cytotoxicity): 6-day CellTiter-Glo matrix",
  "experimental": "3) In Vitro Proliferation—Menin-MLL Inhibitor in Combination with FLT3 Inhibitor (Gilteritinib or Midostaurin), DNA Intercalating Agent (Idarubicin) or Hypomethylating Agent (Decitabine)\nThe effect of Compound 51 in combination with gilteritinib, midostaurin, idarubicin or decitabine was determined in proliferation assays.\nAML cell lines MOLM-13, OCI-AML3 and MV4-11 were purchased from DSMZ. MOLM-13 were grown in RPMI medium supplemented with 10% Fetal Bovine Serum (FBS) and 1% penicillin/streptomycin. MV4-11 cells were grown in IMDM medium supplemented with 10% FBS and 1% penicillin/streptomycin. OCI-AML3 cells were cultured in 80-90% alpha-MEM (with or without ribo- and deoxyribonucleosides)+10-20% FBS. All cell lines were cultured at 37° C. in 5% CO2 atmosphere.\nAML cell lines (10-20×10^3 cells/well) were seeded in 96-well plates and grown for 6 days in serum (10%)-containing medium in the presence or absence of inhibitors at the indicated concentrations. Proliferation was analyzed by means of a Cell Titer Glo assay using the […] (Promega, Madison, WI, USA), according to the manufacturer's instructions. Data are mean with standard deviation from two to four independent experiments in technical triplicates.\nR-based Biochemically Intuitive Generalized Loewe (BIGL) model implemented with a highest single agent (HSA) null model. Specifically, the BIGL methodology was applied to calculate drug-drug interactions (Van der Borght, K., Tourny, A., Bagdziunas, R. et al. BIGL: Biochemically Intuitive Generalized Loewe null model for prediction of the expected combined effect compatible with partial agonism and antagonism. Sci Rep 7, 17935 (2017); Thas, O., Tourny, A., Verbist, B., Hawinkel, S., Nazarov, M., Mutambanengwe, K., & Bijnens, L. Statistical detection of synergy: New methods and a comparative study. Pharmaceutical Statistics (2021)).\nSynergy matrix results of the BIGL analysis of the cell line data with HSA as mean model calculated on the basis of the cellular metabolic activity using Cell Titer-Glo assay. Bootstrap confidence intervals are indicated. Effect sizes and their confidence intervals are shown. […] No significant average effect if zero is included in the interval.",
  "key": {"[1]": {"conditions": "Compound 51 0.1 μm + Decitabine 0.15 μM"}, "[2]": {"conditions": "Compound 51 0.1 μm + Decitabine 1.5 μM"}},
  "data": [
    {"smiles": "CC(=O)N1CCC(CN2CC[C@@H](Cc3cn(-c4ccc(F)cc4C(=O)N(C)C(C)C)c4cncc(C)c34)C2)CC1", "note": "[Compound 51]", "values": [
      {"measurement": "Effect size (BIGL, HSA null model), MV4-11 Cell Proliferation", "setting": "Compound 51 0.05 μm + Gilteritinib 0.3 μM", "result": "−0.02"},
      {"measurement": "Effect size (BIGL, HSA null model), MV4-11 Cell Proliferation", "setting": "Compound 51 0.05 μm + Gilteritinib 1 μM", "result": "−0.02"},
      {"measurement": "Effect size (BIGL, HSA null model), MV4-11 Cell Proliferation", "setting": "Compound 51 0.05 μm + Midostaurin 0.0012 μM", "result": "−0.02"},
      {"measurement": "Effect size (BIGL, HSA null model), MV4-11 Cell Proliferation", "setting": "Compound 51 0.05 μm + Midostaurin 0.006 μM", "result": "−0.07"},
      {"measurement": "Effect size (BIGL, HSA null model), MV4-11 Cell Proliferation", "setting": "Compound 51 0.05 μm + Midostaurin 0.025 μM", "result": "−0.14"},
      {"measurement": "Effect size (BIGL, HSA null model), MV4-11 Cell Proliferation", "setting": "Compound 51 0.05 μm + Midostaurin 0.05 μM", "result": "−0.13"},
      {"measurement": "Effect size (BIGL, HSA null model), MV4-11 Cell Proliferation", "setting": "Compound 51 0.05 μm + Midostaurin 0.1 μM", "result": "−0.04"},
      {"measurement": "Effect size (BIGL, HSA null model), MV4-11 Cell Proliferation", "setting": "Compound 51 0.05 μm + Midostaurin 0.5 μM", "result": 0.03},
      {"measurement": "Effect size (BIGL, HSA null model), MV4-11 Cell Proliferation", "setting": "Compound 51 0.1 μm + Decitabine 0.0015 μM", "result": 0.01},
      {"measurement": "Effect size (BIGL, HSA null model), MV4-11 Cell Proliferation", "setting": "Compound 51 0.1 μm + Decitabine 0.035 μM", "result": "−0.04"},
      {"measurement": "Effect size (BIGL, HSA null model), MV4-11 Cell Proliferation", "setting": "[1]", "result": "−0.09"},
      {"measurement": "Synergy/antagonism call (maxR test), MV4-11 Cell Proliferation", "setting": "[1]", "result": "**"},
      {"measurement": "Effect size (BIGL, HSA null model), MV4-11 Cell Proliferation", "setting": "[2]", "result": "−0.11"},
      {"measurement": "Synergy/antagonism call (maxR test), MV4-11 Cell Proliferation", "setting": "[2]", "result": "**"},
      {"measurement": "Effect size (BIGL, HSA null model), MV4-11 Cell Proliferation", "setting": "Compound 51 0.1 μm + Decitabine 3 μM", "result": "−0.06"},
      {"measurement": "Effect size (BIGL, HSA null model), MV4-11 Cell Proliferation", "setting": "Compound 51 0.1 μm + Gilteritinib 0.0005 μM", "result": "−0.07"},
      {"measurement": "Effect size (BIGL, HSA null model), MV4-11 Cell Proliferation", "setting": "Compound 51 0.1 μm + Gilteritinib 0.005 μM", "result": "−0.03"},
      {"measurement": "Effect size (BIGL, HSA null model), MV4-11 Cell Proliferation", "setting": "Compound 51 0.1 μm + Gilteritinib 0.01 μM", "result": "−0.02"},
      {"measurement": "Effect size (BIGL, HSA null model), MV4-11 Cell Proliferation", "setting": "Compound 51 0.1 μm + Gilteritinib 0.05 μM", "result": "−0.02"},
      {"measurement": "Effect size (BIGL, HSA null model), MV4-11 Cell Proliferation", "setting": "Compound 51 0.1 μm + Gilteritinib 0.3 μM", "result": "−0.02"},
      {"measurement": "Effect size (BIGL, HSA null model), MV4-11 Cell Proliferation", "setting": "Compound 51 0.1 μm + Gilteritinib 1 μM", "result": "−0.02"},
      {"measurement": "Effect size (BIGL, HSA null model), MV4-11 Cell Proliferation", "setting": "Compound 51 0.1 μm + Midostaurin 0.0012 μM", "result": "−0.03"},
      {"measurement": "Effect size (BIGL, HSA null model), MV4-11 Cell Proliferation", "setting": "Compound 51 0.1 μm + Midostaurin 0.006 μM", "result": "−0.06"},
      {"measurement": "Effect size (BIGL, HSA null model), MV4-11 Cell Proliferation", "setting": "Compound 51 0.1 μm + Midostaurin 0.025 μM", "result": "−0.08"},
      {"measurement": "Effect size (BIGL, HSA null model), MV4-11 Cell Proliferation", "setting": "Compound 51 0.1 μm + Midostaurin 0.05 μM", "result": "−0.09"},
      {"measurement": "Effect size (BIGL, HSA null model), MV4-11 Cell Proliferation", "setting": "Compound 51 0.1 μm + Midostaurin 0.1 μM", "result": "−0.04"},
      {"measurement": "Effect size (BIGL, HSA null model), MV4-11 Cell Proliferation", "setting": "Compound 51 0.1 μm + Midostaurin 0.5 μM", "result": 0.03},
      {"measurement": "Effect size (BIGL, HSA null model), MV4-11 Cell Proliferation", "setting": "Compound 51 0.5 μm + Decitabine 0.0015 μM", "result": 0},
      {"measurement": "Effect size (BIGL, HSA null model), MV4-11 Cell Proliferation", "setting": "Compound 51 0.5 μm + Decitabine 0.035 μM", "result": "−0.01"},
      {"measurement": "Effect size (BIGL, HSA null model), MV4-11 Cell Proliferation", "setting": "Compound 51 0.5 μm + Decitabine 0.15 μM", "result": "−0.02"},
      {"measurement": "Effect size (BIGL, HSA null model), MV4-11 Cell Proliferation", "setting": "Compound 51 0.5 μm + Gilteritinib 0.0005 μM", "result": "−0.02"},
      {"measurement": "Effect size (BIGL, HSA null model), MV4-11 Cell Proliferation", "setting": "Compound 51 0.5 μm + Gilteritinib 0.005 μM", "result": "−0.03"},
      {"measurement": "Effect size (BIGL, HSA null model), MV4-11 Cell Proliferation", "setting": "Compound 51 0.5 μm + Gilteritinib 0.01 μM", "result": "−0.02"},
      {"measurement": "Effect size (BIGL, HSA null model), MV4-11 Cell Proliferation", "setting": "Compound 51 0.5 μm + Gilteritinib 0.05 μM", "result": "−0.02"},
      {"measurement": "Effect size (BIGL, HSA null model), MV4-11 Cell Proliferation", "setting": "Compound 51 0.5 μm + Gilteritinib 0.3 μM", "result": "−0.02"},
      {"measurement": "Effect size (BIGL, HSA null model), MV4-11 Cell Proliferation", "setting": "Compound 51 0.5 μm + Gilteritinib 1 μM", "result": "−0.02"},
      {"measurement": "Effect size (BIGL, HSA null model), MV4-11 Cell Proliferation", "setting": "Compound 51 1 μm + Decitabine 0.0015 μM", "result": 0},
      {"measurement": "Effect size (BIGL, HSA null model), MV4-11 Cell Proliferation", "setting": "Compound 51 1 μm + Decitabine 0.035 μM", "result": "−0.01"},
      {"measurement": "Effect size (BIGL, HSA null model), MV4-11 Cell Proliferation", "setting": "Compound 51 1 μm + Decitabine 0.15 μM", "result": "−0.02"},
      {"measurement": "Effect size (BIGL, HSA null model), MV4-11 Cell Proliferation", "setting": "Compound 51 1 μm + Decitabine 1.5 μM", "result": "−0.03"},
      {"measurement": "Effect size (BIGL, HSA null model), MV4-11 Cell Proliferation", "setting": "Compound 51 1 μm + Decitabine 3 μM", "result": "−0.03"},
      {"measurement": "Effect size (BIGL, HSA null model), MV4-11 Cell Proliferation", "setting": "Compound 51 1 μm + Gilteritinib 0.0005 μM", "result": "−0.02"},
      {"measurement": "Effect size (BIGL, HSA null model), MV4-11 Cell Proliferation", "setting": "Compound 51 1 μm + Gilteritinib 0.005 μM", "result": "−0.02"},
      {"measurement": "Effect size (BIGL, HSA null model), MV4-11 Cell Proliferation", "setting": "Compound 51 1 μm + Gilteritinib 0.01 μM", "result": "−0.02"},
      {"measurement": "Effect size (BIGL, HSA null model), MV4-11 Cell Proliferation", "setting": "Compound 51 1 μm + Gilteritinib 0.05 μM", "result": "−0.02"},
      {"measurement": "Effect size (BIGL, HSA null model), MV4-11 Cell Proliferation", "setting": "Compound 51 1 μm + Gilteritinib 0.3 μM", "result": "−0.02"},
      {"measurement": "Effect size (BIGL, HSA null model), MV4-11 Cell Proliferation", "setting": "Compound 51 1 μm + Gilteritinib 1 μM", "result": "−0.02"},
      {"measurement": "Effect size (BIGL, HSA null model), MV4-11 Cell Proliferation", "setting": "Compound 51 1 μm + Midostaurin 0.0012 μM", "result": 0.02},
      {"measurement": "Effect size (BIGL, HSA null model), MV4-11 Cell Proliferation", "setting": "Compound 51 1 μm + Midostaurin 0.006 μM", "result": 0.01},
      {"measurement": "Effect size (BIGL, HSA null model), MV4-11 Cell Proliferation", "setting": "Compound 51 1 μm + Midostaurin 0.025 μM", "result": 0},
      {"measurement": "Effect size (BIGL, HSA null model), MV4-11 Cell Proliferation", "setting": "Compound 51 1 μm + Midostaurin 0.05 μM", "result": 0},
      {"measurement": "Effect size (BIGL, HSA null model), MV4-11 Cell Proliferation", "setting": "Compound 51 1 μm + Midostaurin 0.1 μM", "result": 0},
      {"measurement": "Effect size (BIGL, HSA null model), MV4-11 Cell Proliferation", "setting": "Compound 51 1 μm + Midostaurin 0.5 μM", "result": 0.03},
      {"measurement": "combination effect on proliferation (cytotoxicity)", "setting": "in combination with decitabine, MV4-11", "result": "synergistically cytotoxic"},
      {"measurement": "combination effect on proliferation at low doses of gilteritinib", "setting": "in combination with gilteritinib 10 nM, MV4-11", "result": "synergistic effect"},
      {"measurement": "combination effect on proliferation (cytotoxicity)", "setting": "in combination with gilteritinib, MV4-11", "result": "not antagonistically cytotoxic"},
      {"measurement": "combination effect on proliferation (cytotoxicity)", "setting": "in combination with midostaurin, MV4-11", "result": "not antagonistically cytotoxic"}
    ]}
  ]
}
